Where two headings read alike, the source gives them in different places.
How the values were obtained:
[1] = tested on: Trichophyton rubrum IFO 6467; assay: Paper disc agar diffusion, growth inhibition zone, Trichophyton rubrum IFO 6467; format: cell-based; details: IFO6467, 48 h, Table 4, medium B (Sabouraud agar), 28° C., two days, 1000 μ/ml, 8 mm disc, read-out: Diameter of growth inhibition zone
Procedure: (§1) Evaluation of the antifungal activities of the compound of formula (I) was conducted by the following method: a sheet of filter paper disc (manufactured by Toyo Seisakusho, 8 mm in diameter) soaked in a […] solution of a compound of formula (I) in methanol was placed on an agar plate containing various fungi, which was incubated at 28° C. for two days, and the diameter of the growth inhibition zone around the filter paper disc was measured. The following culture media were used: A: yeast nitrogen base agar medium (pH 7.0) B: Sabouraud agar medium

Candida albicans = assay: Protective effect against Candida albicans infection in mice; format: in vivo, Crj:CDF1 mice; details: 168 h, minimum lethal dose of Candida albicans iv, drug once immediately after infection, survival 7 days after infection
Description: Test Method: Five-week old Crj:CDF1 mice were inoculated with the minimum lethal dose of Candida albicans intravenously. The test drug was given once immediately after infection. The effectiveness of the drug was expressed in ED50 values calculated by the Reed and Muench method from the survival rate 7 days after infection.

Candida utilis IFO 0619 = assay: Paper disc agar diffusion, growth inhibition zone, Candida utilis IFO 0619; format: cell-based; details: Williopsis jadinii, IFO0619, 48 h; Table 4; medium A, 28° C., two days, 1000 μ/ml, 8 mm disc; read-out: Diameter of growth inhibition zone
Procedure: as §1

[2] = tested on: Aspergillus niger IFO 4066; assay: Paper disc agar diffusion, growth inhibition zone, Aspergillus niger IFO 4066; format: cell-based; details: IFO4066, 48 h, Table 4, medium A, 28° C., two days, 1000 μ/ml, 8 mm disc, read-out: Diameter of growth inhibition zone
Procedure: as §1

[3] = tested on: Trichophyton mentagrophytes IFO 7522; assay: Paper disc agar diffusion, growth inhibition zone, Trichophyton mentagrophytes IFO 7522; format: cell-based; details: IFO7522, 48 h, Table 4, medium B (Sabouraud agar), 28° C., two days, 1000 μ/ml, 8 mm disc, read-out: Diameter of growth inhibition zone
Procedure: as §1

[4] = tested on: Microsporum gypseum IFO 6075; assay: Paper disc agar diffusion, growth inhibition zone, Microsporum gypseum IFO 6075; format: cell-based; details: Nannizzia gypsea, IFO6075, 48 h; Table 4; medium B (Sabouraud agar), 28° C., two days, 1000 μ/ml, 8 mm disc; read-out: Diameter of growth inhibition zone
Procedure: as §1

[5] = tested on: Cryptococcus neoformans IFO 0410; assay: Paper disc agar diffusion, growth inhibition zone, Cryptococcus neoformans IFO 0410; format: cell-based; details: IFO0410, 48 h, Table 4, medium A, 28° C., two days, 1000 μ/ml, 8 mm disc, read-out: Diameter of growth inhibition zone
Procedure: as §1

[6] = tested on: Candida albicans IFO 0583; assay: Paper disc agar diffusion, growth inhibition zone, Candida albicans IFO 0583; format: cell-based; details: 28° C., 8 mm disc
Procedure: as §1
cpd. No. (Medium A, 28° C., two-day culture)

[7] = tested on: Aspergillus fumigatus IFO 6344; assay: Paper disc agar diffusion, growth inhibition zone, Aspergillus fumigatus IFO 6344; format: cell-based; details: IFO6344, 48 h, Table 4, medium A, 28° C., two days, 1000 μ/ml, 8 mm disc, read-out: Diameter of growth inhibition zone
Procedure: as §1

[8] = 48 h, pH 7, Table 4, medium A (yeast nitrogen base agar, pH 7.0), two days, 1000 μ/ml in methanol, read-out: Diameter of growth inhibition zone
[9] = Candida albicans, IFO0583, 48 h, Table 5, Medium A, two-day culture, 1000 μ/ml, read-out: Diameter of growth-inhibition zone

Row | Structure (SMILES) | zone of inhibition at 1000 µg/mL [1] [mm] | ED50 (Candida albicans; po) [mg/kg] | zone of inhibition at 1000 µg/mL (Candida utilis IFO 0619) [mm] | zone of inhibition at 1000 µg/mL [2] [mm] | zone of inhibition at 1000 µg/mL [3] [mm] | zone of inhibition at 1000 µg/mL [4] [mm] | zone of inhibition at 1000 µg/mL [5] [mm] | zone of inhibition at 1000 µg/mL [6, 8] [mm] | zone of inhibition at 1000 µg/mL [7] [mm] | zone of inhibition at 1000 µg/mL [6, 9] [mm] | ED50 (Candida albicans; sc) [mg/kg]
1 | C[C@H]([C@](O)(Cn1cncn1)c1ccc(F)cc1F)S(=O)(=O)N1CCN(c2ccccc2)CC1 [Compound 23] | 40 | 7.1 | 45 | 20 | 25 | 30 | 40 | 45 | 22 |  | 
2 | C[C@@H](SNc1ccc(Br)cc1)[C@](O)(Cn1cncn1)c1ccc(F)cc1F [Compound 21, N-(4-bromophenyl)-[(2R,3R)-3-(2,4-difluorophenyl)-3-hydroxy-4-(1H-1,2,4-triazol-1-yl)-2butane]sulfenamide] | 45 |  | 40 | 20 | 25 | 24 | 30 | 43 | 30 |  | 
3 | C[C@H]([C@](O)(Cn1cncn1)c1ccc(F)cc1F)S(=O)(=O)NC1CCCCC1 [Compound 6, N-cyclohexyl-[(2R,3R)-3(2,4-difluorophenyl)-3-hydroxy-4-(1H-1,2,4-triazol-1-yl)-2-butane]sulfonamide] |  | 7.07 |  |  |  |  |  |  |  | 40 | 
4 | C[C@H]([C@](O)(Cn1cncn1)c1ccc(F)cc1F)S(=O)(=O)NCC(F)(F)F [Compound 39, N-(2,2,2-trifluoroethyl)-[(2R,3R)-3-(2,4-difluorophenyl)-3-hydroxy-4-(1H-1,2,4-triazol-1-yl)-2-butane]sulfonamide] |  | 8 |  |  |  |  |  |  |  | 40 | 
5 | C[C@H]([C@](O)(Cn1cncn1)c1ccc(F)cc1F)S(=O)(=O)NC(c1ccccc1)c1ccccc1 [Compound 59, N-diphenylmethyl-[(2R,3R)-3-(2,4-difluorophenyl)-3-hydroxy-4-(1H-1,2,4-triazol-1-yl)-2-butane]sulfonamide] |  | 11.3 |  |  |  |  |  |  |  | 30 | 
6 | C[C@H]([C@](O)(Cn1cncn1)c1ccc(F)cc1F)S(=O)(=O)N1CCN(c2ccc(OCC(F)(F)F)cc2)CC1 [Compound 70, 4-[(2R,3R)-3-(2,4-difluorophenyl)-3-hydroxy-4-(1H-1,2,4-triazol-1-yl)-2-butanesulfonyl]-1-[4-(2,2,2-trifluoroethoxy)phenyl]piperazine] |  | 8 |  |  |  |  |  |  |  | 42 | 
7 | CNS(=O)(=O)[C@H](C)[C@](O)(Cn1cncn1)c1ccc(F)cc1F [Compound 12, N-methyl-[(2R,3R)-3-(2,4-difluorophenyl)-3-hydroxy-4(1H -1,2,4-triazol-1-yl)-2-butane]sulfonamide] |  | 5 |  |  |  |  |  |  |  | 37 | 
8 | C[C@H]([C@](O)(Cn1cncn1)c1ccc(F)cc1F)S(=O)(=O)N(C)C [Compound 2, N,N-dimethyl-[(2R,3R)-3-(2,4-difluorophenyl)-3-hydroxy-4-(1H-1,2,4-triazol-1-yl) -2-butane]sulfonamide] | 35 | 5 | 36 | 25 | 25 | 22 | 38 | 25 | 25 |  | 5
9 | C[C@H]([C@](O)(Cn1cncn1)c1ccc(F)cc1F)S(=O)(=O)N(C)CC(F)(F)F [Compound 46, N-methyl-N-(2,2,2-trifluoroethyl)-[(2R,3R)-3-(2,4-difluorophenyl)-3-hydroxy-4-(1H-1,2,4-triazol-1-yl)-2-butane]sulfonamide] |  | 8 |  |  |  |  |  |  |  | 45 | 

Reference: US5389663A, “1-(1h-1,2,4-triazole-yl)-2-propanol compounds” (Takeda Chemical Industries, Ltd., priority 1991, dated 1995)
